Results on 8 compounds are retold here after PubChem BioAssay (NCI).

Some test systems named below: TK-10 renal; HL-60(TB) leukemia; NCI-H460 lung; COLO 205 colon; UACC-257 melanoma; UO-31 renal; NCI-H226 lung; SF-539 CNS; CCRF-CEM leukemia; SNB-19 CNS.
Test in all cases: inhibition of tumour cell growth, NCI panel, 48 h

Each structure is given as a SMILES string. Where “and” joins values, the source holds several entries; their conditions need not be identical. Identical values can stand only once.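 Briefly, cells in 96-well plates were exposed to five compound concentrations for 48 h, and endpoints were estimated by linear interpolation. GI50 marks 50% less growth. TGI: concentration producing complete growth inhibition.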

As to `CCC[CH2][Sn]([CH2]CCC)([O]C(=O)c1cc(F)ccc1F)[O]C(=O)c1cc(F)ccc1F`, the GI50 in the test on TK-10 renal was 1.64 µM; in the test with HL-60(TB) leukemia, 0.506 µM; with NCI-H460 lung it was 1.85 µM; in the test on COLO 205 colon it was 1.12 µM; in the test on UACC-257 melanoma it was 1.24 µM; with UO-31 renal, 1.47 µM. Also, the GI50 in the test on NCI-H226 lung is 1.56 µM; in the test with SF-539 CNS, 1.4 µM; with CCRF-CEM leukemia it was 0.257 µM; in the test on SNB-19 CNS it was 1.56 µM. Also, the TGI with TK-10 renal worked out at 3.01 µM; in the test with HL-60(TB) leukemia it was 3.09 µM; in the test with NCI-H460 lung it was 3.56 µM; with COLO 205 colon it was 2.32 µM; in the test with UACC-257 melanoma it was 2.49 µM; with UO-31 renal, 2.79 µM. Besides, the TGI in the test with NCI-H226 lung came out at 2.92 µM; in the test on SF-539 CNS, 2.81 µM; in the test with CCRF-CEM leukemia, 1.25 µM; with SNB-19 CNS, 2.9 µM.

Regarding `C[C@H]1COCCN1c1nc(-c2cnc(N)cc2C(F)F)nc(N2CCOCC2)n1`, the GI50 was 0.0866 µM in the test with TK-10 renal; 0.171 µM in the test on HL-60(TB) leukemia; 0.113 µM in the test with NCI-H460 lung; 0.179 µM in the test with COLO 205 colon; 0.166 µM with UACC-257 melanoma; 0.047 µM with UO-31 renal. Moreover, the GI50 in the test with NCI-H226 lung was 0.127 µM; in the test on SF-539 CNS it was 0.235 µM; in the test on CCRF-CEM leukemia, 0.285 µM; with SNB-19 CNS, 0.3 µM. Further, the TGI is 0.815 µM with TK-10 renal; 97.8 µM with HL-60(TB) leukemia; greater than 100 µM in the test on NCI-H460 lung; 19.8 µM in the test with COLO 205 colon; 1.58 µM in the test on UACC-257 melanoma; greater than 100 µM with UO-31 renal. Further, the TGI in the test on NCI-H226 lung was greater than 100 µM; in the test on SF-539 CNS it was 1.45 µM; in the test with CCRF-CEM leukemia it was greater than 50.3 µM; in the test on SNB-19 CNS, 13.8 µM.

Turning to `C=C1C(=O)O[C@H]2[C@H]1CC/C(COC(=O)CCCCCCCC(=O)OC/C1=C/CC[C@@]3(C)O[C@H]3[C@H]3OC(=O)C(=C)[C@@H]3CC1)=C\CC[C@@]1(C)O[C@@H]21`, the GI50 in the test with TK-10 renal was 2.94 µM; in the test with HL-60(TB) leukemia it was 1.04 µM; in the test with NCI-H460 lung, 3.06 µM; with COLO 205 colon, 1.76 µM; with UACC-257 melanoma, 2.13 µM; in the test with UO-31 renal it was 1.5 µM. Further, the GI50 in the test on NCI-H226 lung was 2.63 µM; in the test on SF-539 CNS it was 1.83 µM; in the test on CCRF-CEM leukemia it was 0.476 µM; in the test on SNB-19 CNS, 4.85 µM. For the same compound, the TGI came to 7.03 µM with TK-10 renal; 4.87 µM in the test with HL-60(TB) leukemia; 9.1 µM with NCI-H460 lung; 3.78 µM in the test on COLO 205 colon; 4.64 µM in the test on UACC-257 melanoma; 3.79 µM in the test on UO-31 renal. In addition, the TGI with NCI-H226 lung was found to be 6.97 µM; in the test with SF-539 CNS it was 3.83 µM; with CCRF-CEM leukemia, 7.49 µM; in the test with SNB-19 CNS it was 19.2 µM.

`Oc1ccc(Cl)cc1Sc1cc(Cl)ccc1O`: the GI50 in the test with TK-10 renal is 8.02 µM; in the test on HL-60(TB) leukemia it was 3.19 µM; in the test with NCI-H460 lung, 3.45 µM; in the test with COLO 205 colon, 5.93 µM; with UACC-257 melanoma, 2.83 µM; with UO-31 renal, 2.24 µM. For the same compound, the GI50 is 4.09 µM in the test with NCI-H226 lung, 3.14 µM in the test with SF-539 CNS, 2.59 µM with CCRF-CEM leukemia and 4.19 µM in the test with SNB-19 CNS. The TGI in the test with TK-10 renal was 31.3 µM and 31.1 µM; in the test on HL-60(TB) leukemia, 37.3 µM and 7.52 µM; in the test with NCI-H460 lung, 24.8 µM and 9.2 µM; in the test on COLO 205 colon, 39.9 µM and 20.2 µM; in the test with UACC-257 melanoma it was 19.3 µM and 6.91 µM; in the test on UO-31 renal it was 20.1 µM and 6.24 µM. The TGI is 41.9 µM and 19.2 µM in the test on NCI-H226 lung; 37.2 µM and 11.2 µM in the test on SF-539 CNS; 55 µM and 12.8 µM with CCRF-CEM leukemia; 57.1 µM and 16 µM in the test on SNB-19 CNS.

As to `O=C1C(Cl)=C(Cl)C(=O)N1c1cccc(C(F)(F)F)c1`, the TGI in the test on TK-10 renal, in the test with HL-60(TB) leukemia, in the test with NCI-H460 lung, in the test with COLO 205 colon, with UACC-257 melanoma and in the test with UO-31 renal was greater than 100 µM in each case. The TGI in the test with NCI-H226 lung is greater than 100 µM; with SF-539 CNS it was greater than 100 µM; in the test with CCRF-CEM leukemia it was greater than 85.3 µM; in the test with SNB-19 CNS, greater than 100 µM.

For `CCC[n+]1cc2cc3c(cc2c2c1-c1cc4c(cc1C2)OCO4)OCO3` (tested in a mixture with another compound), the GI50 was 4.11 µM with TK-10 renal; 2.98 µM in the test on HL-60(TB) leukemia; 0.337 µM in the test with NCI-H460 lung; 0.49 µM with COLO 205 colon; 0.706 µM with UACC-257 melanoma; 3.14 µM in the test on UO-31 renal. Further, the GI50 was 0.719 µM in the test on NCI-H226 lung, 0.425 µM in the test on SF-539 CNS, 2.38 µM with CCRF-CEM leukemia and 0.269 µM in the test with SNB-19 CNS. The TGI with TK-10 renal stood at 38.6 µM; with HL-60(TB) leukemia it was 14.8 µM; in the test on NCI-H460 lung, 4.39 µM; with COLO 205 colon, 3.79 µM; in the test with UACC-257 melanoma it was 3.16 µM; in the test with UO-31 renal, 33.8 µM. Moreover, the TGI in the test with NCI-H226 lung was found to be 7.96 µM; with SF-539 CNS it was 2.88 µM; in the test on CCRF-CEM leukemia, 15 µM; in the test on SNB-19 CNS it was 2.18 µM.

Take `CCN(CC)S(=O)(=O)c1cccc(-c2ccc3c(NC(=O)C4CC4)n[nH]c3c2)c1`: the GI50 in the test on TK-10 renal was 5.06 µM; in the test on HL-60(TB) leukemia, 2.17 µM; in the test on NCI-H460 lung it was 2.08 µM; in the test with COLO 205 colon it was 1.71 µM; with UACC-257 melanoma, 2.26 µM; with UO-31 renal, 3.97 µM. Further, the GI50 in the test with NCI-H226 lung was 3.78 µM; in the test on SF-539 CNS it was 1.47 µM; with CCRF-CEM leukemia, 1.84 µM; in the test with SNB-19 CNS, 3.13 µM. The TGI with TK-10 renal, in the test on HL-60(TB) leukemia, with NCI-H460 lung, in the test with COLO 205 colon, in the test on UACC-257 melanoma and with UO-31 renal was greater than 6.25 µM each time. Moreover, the TGI was greater than 6.25 µM with NCI-H226 lung, 5.6 µM with SF-539 CNS, greater than 6.25 µM in the test with CCRF-CEM leukemia and greater than 6.25 µM with SNB-19 CNS.

Turning to `CN(C)c1cc2c(Nc3ccc4c(cnn4Cc4ccccc4)c3)ncnc2cn1`, the GI50 was 0.741 µM in the test on TK-10 renal; 8.93 µM in the test with HL-60(TB) leukemia; 10.3 µM in the test on NCI-H460 lung; 10.1 µM with COLO 205 colon; 13.2 µM in the test with UACC-257 melanoma; 4.06 µM in the test on UO-31 renal. For the same compound, the GI50 was 15.9 µM in the test with NCI-H226 lung, 10.1 µM with SF-539 CNS, 10.3 µM in the test with CCRF-CEM leukemia and 12.7 µM in the test on SNB-19 CNS. Further, the TGI is greater than 23.2 µM in the test with TK-10 renal; 23.8 µM in the test with HL-60(TB) leukemia; greater than 25 µM with NCI-H460 lung; greater than 25 µM with COLO 205 colon; greater than 25 µM in the test with UACC-257 melanoma; greater than 18.4 µM in the test on UO-31 renal. Besides, the TGI in the test with NCI-H226 lung, with SF-539 CNS, with CCRF-CEM leukemia and in the test with SNB-19 CNS was greater than 25 µM throughout.
